SMILES strings stand for the structures. Calls of active or inactive are those of the source. No cut-off for these calls is given here. Some results are limits rather than exact numbers.

Assay type in all cases: functional
The test system of experiment [1] is Clostridium perfringens. In words: Antimicrobial activity against Clostridium perfringens LFM1 assessed as resistance breakpoint by DIN-standardized microdilution method. (In general: Dilution methods test growth across graded concentrations, often in twofold steps.)
The test system of experiment [2] is Clostridium perfringens. In words: Antimicrobial activity against Clostridium perfringens LFM1 assessed as resistance breakpoint by DANMAP method.
The test system of experiment [3] is Clostridium perfringens. In words: Antimicrobial activity against Clostridium perfringens LFM1 assessed as resistant breakpoint by EUCAST method.

Consider `CCC[C@@H]1C[C@@H](C(=O)N[C@@H]([C@H]2O[C@H](SC)[C@H](O)[C@@H](O)[C@H]2O)[C@H](C)Cl)N(C)C1`, for which the outcome in the experiment on Clostridium perfringens [1] was inactive. On to `CS(=O)(=O)c1ccc([C@@H](O)[C@@H](CF)NC(=O)C(Cl)Cl)cc1` [FLORFENICOL], for which the result in the experiment with Clostridium perfringens [2] was inactive. As for `CC[C@H]1OC(=O)[C@H](C)[C@@H](O[C@H]2C[C@@](C)(OC)[C@@H](O)[C@H](C)O2)[C@H](C)[C@@H](O[C@@H]2O[C@H](C)C[C@H](N(C)C)[C@H]2O)[C@](C)(O)C[C@@H](C)C(=O)[C@H](C)[C@@H](O)[C@]1(C)O`, the outcome in the experiment on Clostridium perfringens [1] was inactive. `CC(=O)NC[C@H]1CN(c2ccc(N3CCOCC3)c(F)c2)C(=O)O1` [LINEZOLID]: the outcome in the experiment with Clostridium perfringens [3] was inactive. Moreover, the Activity in the experiment with Clostridium perfringens [3] (record 2), in the experiment on Clostridium perfringens [1] and in the experiment on Clostridium perfringens [2] was above 4 mg/L throughout.

Regarding `O=C(N[C@H](CO)[C@H](O)c1ccc([N+](=O)[O-])cc1)C(Cl)Cl`, the result with Clostridium perfringens [2] was inactive.

Source of the values: ChEMBL document CHEMBL1240402 (2010).
